Experimental data as given in US8053418B2, “Anti-penicillin resistant pneumococci agent and novel 16-membered macrolide derivative” (Microbial Chemistry Research Foundation, priority 2005, dated 2011).
Converted amounts (≈) assume the structure as drawn. Where two headings read alike, the source gives them in different places.

Tests used:
Assay type in all cases: cell-based
[1] = system: Streptococcus pneumoniae IMC B-0919 (PRSP); assay: Antimicrobial activity test (MIC), clinical isolate IMC B-0919
Method: (§1) Using Streptococcus pneumoniae that include clinical isolates of PRSP, the antimicrobial activity of each of the prepared anti-PRSP agents was measured in accordance with the “determination method of minimum inhibitory concentration of drug against bacteria” of Japanese Society of Chemotherapy (for re-revised version, see Chemotherapy 29; 76, 1981).
(§2) 11 test strains of Streptococcus pneumoniae including IMC B-0919 are all clinical isolates, of which 2 strains, IMC B-0921 and IMC B-1229, are classified into penicillin susceptible Streptococcus pneumoniae (PSSP) and the remaining 9 strains are classified into penicillin-resistant Streptococcus pneumoniae (PRSP) (according to NCCLS standards).

[2] = system: Streptococcus pneumoniae IMC B-0920 (PRSP); assay: Antimicrobial activity test (MIC), clinical isolate IMC B-0920
Method: as §1, §2

[3] = system: Streptococcus pneumoniae IMC B-0922 (PRSP); assay: Antimicrobial activity test (MIC), clinical isolate IMC B-0922
Method: as §1, §2

[4] = system: Streptococcus pneumoniae IMC B-1231 (PRSP); assay: Antimicrobial activity test (MIC), clinical isolate IMC B-1231
Method: as §1, §2

[5] = system: Streptococcus pneumoniae IMC B-1232 (PRSP); assay: Antimicrobial activity test (MIC), clinical isolate IMC B-1232
Method: as §1, §2

[6] = system: Streptococcus pneumoniae IMC B-1233 (PRSP); assay: Antimicrobial activity test (MIC), clinical isolate IMC B-1233
Method: as §1, §2

[7] = system: Streptococcus pneumoniae IMC B-1234 (PRSP); assay: Antimicrobial activity test (MIC), clinical isolate IMC B-1234
Method: as §1, §2

[8] = system: Streptococcus pneumoniae IMC B-1235 (PRSP); assay: Antimicrobial activity test (MIC), clinical isolate IMC B-1235
Method: as §1, §2

[9] = system: Streptococcus pneumoniae IMC B-1236 (PRSP); assay: Antimicrobial activity test (MIC), clinical isolate IMC B-1236
Method: as §1, §2

[10] = system: Streptococcus pneumoniae IMC B-0921 (PSSP); assay: Antimicrobial activity test (MIC), clinical isolate IMC B-0921
Method: as §1, §2

[11] = system: Streptococcus pneumoniae IMC B-1229 (PSSP); assay: Antimicrobial activity test (MIC), clinical isolate IMC B-1229
Method: as §1, §2

[12] = Streptococcus pneumoniae IMC B-0919, PRSP
[13] = Streptococcus pneumoniae IMC B-0920, PRSP
[14] = Streptococcus pneumoniae IMC B-0922, PRSP
[15] = Streptococcus pneumoniae IMC B-1231, PRSP
[16] = Streptococcus pneumoniae IMC B-1232, PRSP
[17] = Streptococcus pneumoniae IMC B-1233, PRSP
[18] = Streptococcus pneumoniae IMC B-1234, PRSP
[19] = Streptococcus pneumoniae IMC B-1235, PRSP
[20] = Streptococcus pneumoniae IMC B-1236, PRSP
[21] = Streptococcus pneumoniae IMC B-0921, PSSP
[22] = Streptococcus pneumoniae IMC B-1229, PSSP
[23] = PRSP clinical isolate IMC B-0919
[24] = PRSP clinical isolate IMC B-0920
[25] = PRSP clinical isolate IMC B-0922
[26] = PRSP clinical isolate IMC B-1231
[27] = PRSP clinical isolate IMC B-1232
[28] = PRSP clinical isolate IMC B-1233
[29] = PRSP clinical isolate IMC B-1234
[30] = PRSP clinical isolate IMC B-1235
[31] = PRSP clinical isolate IMC B-1236
[32] = PSSP clinical isolate IMC B-0921
[33] = PSSP clinical isolate IMC B-1229
[34] = Streptococcus pneumoniae IMC B-0919, PRSP, read-out: MIC
[35] = Streptococcus pneumoniae IMC B-0920, PRSP, read-out: MIC
[36] = Streptococcus pneumoniae IMC B-0922, PRSP, read-out: MIC
[37] = Streptococcus pneumoniae IMC B-1231, PRSP, read-out: MIC
[38] = Streptococcus pneumoniae IMC B-1232, PRSP, read-out: MIC
[39] = Streptococcus pneumoniae IMC B-1233, PRSP, read-out: MIC
[40] = Streptococcus pneumoniae IMC B-1234, PRSP, read-out: MIC
[41] = Streptococcus pneumoniae IMC B-1235, PRSP, read-out: MIC
[42] = Streptococcus pneumoniae IMC B-1236, PRSP, read-out: MIC
[43] = Streptococcus pneumoniae IMC B-0921, PSSP, read-out: MIC
[44] = Streptococcus pneumoniae IMC B-1229, PSSP, read-out: MIC

CCC1OC(=O)CCC(C)C(OC2OC(C)CC(N(C)C)C2O)C(CC=O)CC(C)C(=O)C=CC(C)=CC1CN1CCC(CCO)CC1 (centres unmarked) [MKT-6113]
MIC [1, 12]: 0.78 µg/mL (≈ 1.15 µM)
MIC [2, 13]: 1.56 µg/mL (≈ 2.3 µM)
MIC [3, 14]: 1.56 µg/mL (≈ 2.3 µM)
MIC [4, 15]: >50 µg/mL
MIC [5, 16]: 1.56 µg/mL (≈ 2.3 µM)
MIC [6, 17]: 0.78 µg/mL (≈ 1.15 µM)
MIC [7, 18]: 0.39 µg/mL (≈ 0.576 µM)
MIC [8, 19]: >50 µg/mL
MIC [9, 20]: >50 µg/mL
MIC [10, 21]: 0.20 µg/mL (≈ 0.295 µM)
MIC [11, 22]: 0.39 µg/mL (≈ 0.576 µM)

CCC1OC(=O)CCC(C)C(OC2OC(C)CC(N(C)C)C2O)C(CC=O)CC(C)C(=O)C=CC(C)=CC1CI (centres unmarked) [MKT-3001]
MIC [1, 23]: 0.39 µg/mL (≈ 0.577 µM)
MIC [2, 24]: 0.2 µg/mL (≈ 0.296 µM)
MIC [3, 25]: 0.2 µg/mL (≈ 0.296 µM)
MIC [4, 26]: >50 µg/mL
MIC [5, 27]: 0.1 µg/mL (≈ 0.148 µM)
MIC [6, 28]: 0.2 µg/mL (≈ 0.296 µM)
MIC [7, 29]: 0.2 µg/mL (≈ 0.296 µM)
MIC [8, 30]: 50 µg/mL (≈ 74 µM)
MIC [9, 31]: 25 µg/mL (≈ 37 µM)
MIC [10, 32]: 0.2 µg/mL (≈ 0.296 µM)
MIC [11, 33]: 0.39 µg/mL (≈ 0.577 µM)

CC[C@H]1OC(=O)[C@H](C)[C@@H](O[C@H]2C[C@@](C)(OC)[C@@H](O)[C@H](C)O2)[C@H](C)[C@@H](O[C@@H]2O[C@H](C)C[C@H](N(C)C)[C@H]2O)[C@](C)(OC)C[C@@H](C)C(=O)[C@H](C)[C@@H](O)[C@]1(C)O [clarithromycin, reference compound]
MIC [1, 34]: 0.2 µg/mL (≈ 0.267 µM)
MIC [2, 35]: 0.2 µg/mL (≈ 0.267 µM)
MIC [3, 36]: 0.2 µg/mL (≈ 0.267 µM)
MIC [4, 37]: 25 µg/mL (≈ 33.4 µM)
MIC [5, 38]: 0.39 µg/mL (≈ 0.521 µM)
MIC [6, 39]: 0.05 µg/mL (≈ 0.0668 µM)
MIC [7, 40]: 0.05 µg/mL (≈ 0.0668 µM)
MIC [8, 41]: > 100 µg/mL
MIC [9, 42]: > 100 µg/mL
MIC [10, 43]: 0.1 µg/mL (≈ 0.134 µM)
MIC [11, 44]: 0.1 µg/mL (≈ 0.134 µM)

CC[C@H]1OC(=O)C[C@@H](O)[C@H](C)[C@@H](O[C@@H]2O[C@H](C)[C@@H](O[C@H]3C[C@@](C)(O)[C@@H](O)[C@H](C)O3)[C@H](N(C)C)[C@H]2O)[C@@H](CC=O)C[C@@H](C)C(=O)/C=C/C(C)=C/[C@@H]1CO[C@@H]1O[C@H](C)[C@@H](O)[C@@H](OC)[C@H]1OC [tylosin, reference compound]
MIC [1, 34]: 0.39 µg/mL (≈ 0.426 µM)
MIC [2, 35]: 0.39 µg/mL (≈ 0.426 µM)
MIC [3, 36]: 0.39 µg/mL (≈ 0.426 µM)
MIC [4, 37]: 100 µg/mL (≈ 109 µM)
MIC [5, 38]: 0.39 µg/mL (≈ 0.426 µM)
MIC [6, 39]: 0.78 µg/mL (≈ 0.851 µM)
MIC [7, 40]: 0.39 µg/mL (≈ 0.426 µM)
MIC [8, 41]: > 100 µg/mL
MIC [9, 42]: > 100 µg/mL
MIC [10, 43]: 0.39 µg/mL (≈ 0.426 µM)
MIC [11, 44]: 0.39 µg/mL (≈ 0.426 µM)

CCC1OC(=O)CCC(C)C(OC2OC(C)CC(N(C)C)C2O)C(CC=O)CC(C)C(=O)C=CC(C)=CC1CN(C)C (centres unmarked) [MKT-3101]
MIC [1, 23]: 0.78 µg/mL (≈ 1.32 µM)
MIC [2, 24]: 0.78 µg/mL (≈ 1.32 µM)
MIC [3, 25]: 0.39 µg/mL (≈ 0.658 µM)
MIC [4, 26]: 12.5 µg/mL (≈ 21.1 µM)
MIC [5, 27]: 0.2 µg/mL (≈ 0.337 µM)
MIC [6, 28]: 0.2 µg/mL (≈ 0.337 µM)
MIC [7, 29]: 0.2 µg/mL (≈ 0.337 µM)
MIC [8, 30]: 25 µg/mL (≈ 42.2 µM)
MIC [9, 31]: 50 µg/mL (≈ 84.3 µM)
MIC [10, 32]: 0.2 µg/mL (≈ 0.337 µM)
MIC [11, 33]: 0.2 µg/mL (≈ 0.337 µM)

CCC1OC(=O)CCC(C)C(OC2OC(C)CC(N(C)C)C2O)C(CC=O)CC(C)C(=O)C=CC(C)=CC1CN(C)CCc1ccc(OC)c(OC)c1 (centres unmarked) [MKT-6104]
MIC [1, 23]: 1.56 µg/mL (≈ 2.1 µM)
MIC [2, 24]: 0.78 µg/mL (≈ 1.05 µM)
MIC [3, 25]: 0.78 µg/mL (≈ 1.05 µM)
MIC [4, 26]: 50 µg/mL (≈ 67.3 µM)
MIC [5, 27]: 1.56 µg/mL (≈ 2.1 µM)
MIC [6, 28]: 1.56 µg/mL (≈ 2.1 µM)
MIC [7, 29]: 1.56 µg/mL (≈ 2.1 µM)
MIC [8, 30]: 25 µg/mL (≈ 33.6 µM)
MIC [9, 31]: 25 µg/mL (≈ 33.6 µM)
MIC [10, 32]: 0.78 µg/mL (≈ 1.05 µM)
MIC [11, 33]: 1.56 µg/mL (≈ 2.1 µM)

CCC1OC(=O)CCC(C)C(OC2OC(C)CC(N(C)C)C2O)C(CC=O)CC(C)C(=O)C=CC(C)=CC1CCl (centres unmarked) [MKT-3007]
MIC [1, 12]: 0.20 µg/mL (≈ 0.342 µM)
MIC [2, 13]: 0.20 µg/mL (≈ 0.342 µM)
MIC [3, 14]: 0.20 µg/mL (≈ 0.342 µM)
MIC [4, 15]: 25 µg/mL (≈ 42.8 µM)
MIC [5, 16]: 0.20 µg/mL (≈ 0.342 µM)
MIC [6, 17]: 0.20 µg/mL (≈ 0.342 µM)
MIC [7, 18]: 0.20 µg/mL (≈ 0.342 µM)
MIC [8, 19]: 50 µg/mL (≈ 85.6 µM)
MIC [9, 20]: 50 µg/mL (≈ 85.6 µM)
MIC [10, 21]: 0.10 µg/mL (≈ 0.171 µM)
MIC [11, 22]: 0.20 µg/mL (≈ 0.342 µM)
